# In BigSolDB 2.1:
compound,measurement,setting,value
CC(=O)[C@@]12O[C@@H]1C[C@H]1[C@@H]3CCC4=CC(=O)CC[C@]4(C)[C@H]3CC[C@@]12C,solubility (mole fraction),"in DMSO, 312.45 K",0.00539
same,solubility (mole fraction),"in DMSO, 315.5 K",0.00572
same,solubility (mole fraction),"in DMSO, 318.35 K",0.00657
same,solubility (mole fraction),"in DMSO, 322.35 K",0.00756
same,solubility (mole fraction),"in DMSO, 326.5 K",0.0087
same,solubility (mole fraction),"in DMSO, 328.65 K",0.00937
same,solubility (mole fraction),"in DMSO, 331.2 K",0.0101
same,solubility (mole fraction),"in DMSO, 334.9 K",0.0115
same,solubility (mole fraction),"in DMSO, 339.15 K",0.0135
same,solubility (mole fraction),"in DMSO, 343.95 K",0.0161
same,solubility (mole fraction),"in DMSO, 348.35 K",0.0188
same,solubility (mole fraction),"in DMSO, 353.45 K",0.0223
same,solubility (mole fraction),"in isopropanol, 296.65 K",0.00307
same,solubility (mole fraction),"in isopropanol, 299.55 K",0.00341
same,solubility (mole fraction),"in isopropanol, 303.25 K",0.00405
same,solubility (mole fraction),"in isopropanol, 306.35 K",0.00486
same,solubility (mole fraction),"in isopropanol, 311.75 K",0.00598
same,solubility (mole fraction),"in isopropanol, 314.8 K",0.00689
same,solubility (mole fraction),"in isopropanol, 317.85 K",0.00752
same,solubility (mole fraction),"in isopropanol, 322.95 K",0.00992
same,solubility (mole fraction),"in isopropanol, 325.6 K",0.011
same,solubility (mole fraction),"in isopropanol, 328.75 K",0.0125
same,solubility (mole fraction),"in isopropanol, 333.25 K",0.0152
same,solubility (mole fraction),"in isopropanol, 337.45 K",0.0177
same,solubility (mole fraction),"in n-butanol, 300.85 K",0.00412
same,solubility (mole fraction),"in n-butanol, 303.9 K",0.00473
same,solubility (mole fraction),"in n-butanol, 306.75 K",0.00543
same,solubility (mole fraction),"in n-butanol, 309.85 K",0.00624
same,solubility (mole fraction),"in n-butanol, 314.25 K",0.00765
same,solubility (mole fraction),"in n-butanol, 319.18 K",0.00919
same,solubility (mole fraction),"in n-butanol, 323.55 K",0.0109
same,solubility (mole fraction),"in n-butanol, 328.05 K",0.0134
same,solubility (mole fraction),"in n-butanol, 332.75 K",0.0162
same,solubility (mole fraction),"in n-butanol, 336.66 K",0.019
same,solubility (mole fraction),"in n-butanol, 340.3 K",0.0219
same,solubility (mole fraction),"in n-butanol, 343.5 K",0.0244
same,solubility (mole fraction),"in n-propanol, 299.15 K",0.00349
same,solubility (mole fraction),"in n-propanol, 304.05 K",0.00459
same,solubility (mole fraction),"in n-propanol, 307.5 K",0.00524
same,solubility (mole fraction),"in n-propanol, 311.55 K",0.00623
same,solubility (mole fraction),"in n-propanol, 313.7 K",0.00684
same,solubility (mole fraction),"in n-propanol, 316.25 K",0.00769
same,solubility (mole fraction),"in n-propanol, 320.65 K",0.00908
same,solubility (mole fraction),"in n-propanol, 324.25 K",0.0105
same,solubility (mole fraction),"in n-propanol, 328.25 K",0.0122
same,solubility (mole fraction),"in n-propanol, 332.05 K",0.0143
same,solubility (mole fraction),"in n-propanol, 335.25 K",0.0165
same,solubility (mole fraction),"in n-propanol, 340.6 K",0.0203
CC(=O)[C@@]12O[C@@H]1C[C@H]1[C@@H]3CCC4=CC(=O)CC[C@]4(C)[C@H]3[C@H](O)C[C@@]12C,solubility (mole fraction),"in 1,4-dioxane, 298 K",0.00293
same,solubility (mole fraction),"in 1,4-dioxane, 302.75 K",0.00353
same,solubility (mole fraction),"in 1,4-dioxane, 306.39 K",0.00408
same,solubility (mole fraction),"in 1,4-dioxane, 310.55 K",0.00447
same,solubility (mole fraction),"in 1,4-dioxane, 314.75 K",0.00518
same,solubility (mole fraction),"in 1,4-dioxane, 317.25 K",0.0055
same,solubility (mole fraction),"in 1,4-dioxane, 320.35 K",0.00605
same,solubility (mole fraction),"in 1,4-dioxane, 325.05 K",0.00687
same,solubility (mole fraction),"in 1,4-dioxane, 328.55 K",0.00765
same,solubility (mole fraction),"in 1,4-dioxane, 332.05 K",0.00845
same,solubility (mole fraction),"in 1,4-dioxane, 335.35 K",0.00932
same,solubility (mole fraction),"in 1,4-dioxane, 340.15 K",0.0105
same,solubility (mole fraction),"in DMSO, 297.75 K",0.00423
same,solubility (mole fraction),"in DMSO, 301.3 K",0.00515
same,solubility (mole fraction),"in DMSO, 311.06 K",0.00772
same,solubility (mole fraction),"in DMSO, 315.15 K",0.00843
same,solubility (mole fraction),"in DMSO, 319.05 K",0.00966
same,solubility (mole fraction),"in DMSO, 324.25 K",0.0112
same,solubility (mole fraction),"in DMSO, 327.15 K",0.0126
same,solubility (mole fraction),"in DMSO, 329.55 K",0.0141
same,solubility (mole fraction),"in DMSO, 333.67 K",0.016
same,solubility (mole fraction),"in DMSO, 337.43 K",0.0178
same,solubility (mole fraction),"in DMSO, 340.25 K",0.0196
same,solubility (mole fraction),"in DMSO, 344.65 K",0.0228
same,solubility (mole fraction),"in isopropanol, 297.95 K",0.000542
same,solubility (mole fraction),"in isopropanol, 300.25 K",0.000643
same,solubility (mole fraction),"in isopropanol, 303.45 K",0.000717
same,solubility (mole fraction),"in isopropanol, 308.05 K",0.000952
same,solubility (mole fraction),"in isopropanol, 312.65 K",0.00126
same,solubility (mole fraction),"in isopropanol, 316.35 K",0.00147
same,solubility (mole fraction),"in isopropanol, 320.75 K",0.0019
same,solubility (mole fraction),"in isopropanol, 323.85 K",0.00212
same,solubility (mole fraction),"in isopropanol, 327.45 K",0.00262
same,solubility (mole fraction),"in isopropanol, 331.95 K",0.00311
same,solubility (mole fraction),"in isopropanol, 335.65 K",0.00368
same,solubility (mole fraction),"in isopropanol, 340.25 K",0.00456
same,solubility (mole fraction),"in n-butanol, 298.75 K",0.000597
same,solubility (mole fraction),"in n-butanol, 304.45 K",0.000775
same,solubility (mole fraction),"in n-butanol, 307.35 K",0.000935
same,solubility (mole fraction),"in n-butanol, 310.75 K",0.00113
same,solubility (mole fraction),"in n-butanol, 315.67 K",0.00143
same,solubility (mole fraction),"in n-butanol, 320.75 K",0.00177
same,solubility (mole fraction),"in n-butanol, 324.35 K",0.00205
same,solubility (mole fraction),"in n-butanol, 328.55 K",0.00237
same,solubility (mole fraction),"in n-butanol, 331.65 K",0.00268
same,solubility (mole fraction),"in n-butanol, 334.15 K",0.00304
same,solubility (mole fraction),"in n-butanol, 336.45 K",0.00334
same,solubility (mole fraction),"in n-butanol, 340.15 K",0.00384
same,solubility (mole fraction),"in n-propanol, 300.5 K",0.000796
same,solubility (mole fraction),"in n-propanol, 303.25 K",0.000933
same,solubility (mole fraction),"in n-propanol, 306.75 K",0.00109
same,solubility (mole fraction),"in n-propanol, 309.9 K",0.00125
same,solubility (mole fraction),"in n-propanol, 312.7 K",0.00142
same,solubility (mole fraction),"in n-propanol, 317.15 K",0.00172
same,solubility (mole fraction),"in n-propanol, 321.67 K",0.00208
same,solubility (mole fraction),"in n-propanol, 324.85 K",0.00235
same,solubility (mole fraction),"in n-propanol, 327.95 K",0.0027
same,solubility (mole fraction),"in n-propanol, 332.65 K",0.00322
same,solubility (mole fraction),"in n-propanol, 336.85 K",0.00382
same,solubility (mole fraction),"in n-propanol, 341.65 K",0.00463
